The subject of series [1] is L-dopa induced dyskinesias. The experiment in a line: earlier studies of IR AFQ056 in Parkinson's disease patients. The format is in vivo, human. The note with it: IR formulation. The text has this:
AFQ056 has previously been formulated as a hard gelatin capsule and as a powder for oral suspension, both with immediate release (IR) properties. […] The IR formulation used in these studies required twice-daily dosing.

A short description of series [2]: half life of AFQ056 used to set the wash out period. The following applies: human, in vivo, oral; 50 mg and 100 mg doses. The text has this:
The study has a 3-Latin, 5-sequences×5-period open-label design that is suitable for comparing the pharmacokinetics including relative bioavailability of three modified release formulations of AFQ056. The immediate release capsule formulation (size O, IR) is used as a reference to enable comparisons with data obtained in previously completed trials. This study design allows the comparison of pharmacokinetic profile of AFQ056 from three modified release (MR) formulations relative to the IR formulation under fasted conditions, and to assess the food effect on the pharmacokinetics of the three MR forms. Latin-square design is selected as it offers maximum precision of comparison across different treatments with minimum number of study subjects. The cross-over design permits investigation of all five treatment conditions within each subject and is used to account for interindividual variability. […] Sampling for 72 hours post dose is considered sufficient for characterizing the PK profiles of all formulations, including the MR forms.

Series [3] is described as follows: distribution coefficient Log P of drug substance. The format is physicochemical. The procedure:
AFQ056 is a chiral molecule with 3 asymmetric carbon atoms and has a melting point of about 115° C. One single polymorph has been identified.

A short description of series [4]: solubility of AFQ056 at 37° C. in different aqueous media (FIG. 2). The note with it: pure aqueous solution with raising ethanol levels. It counts as physicochemical. As for the experimental part:
FIG. 2 graphically depicts the solubility of AFQ056 at 37° C. in different aqueous media. […] Up to the amount of about 20% of ethanol in the solutions, the LDAO (Lauryldimethylamine N-oxide) in water solution and the water-ethanol solution show a different solubility pattern of AFQ056. In the presence of about 40% ethanol in the solutions, both the LDAO in water solution and the water-ethanol solution show a similar solubility for AFQ056.
The solubility pattern of AFQ056 was examined ([…]). […] In pure aqueous solutions the solubility of AFQ056 steadily increases with raising ethanol concentrations. The solubility pattern of AFQ056 in a LDAO water-ethanol solution is distinct from the solubility pattern of AFQ056 in a pure aqueous solution only up to an amount of 20% ethanol present in the solution. […] Immediate release forms of AFQ056 have therefore the inherent risk of dose dumping and can create severe consequences for the patient if ethanol-containing beverages are consumed in parallel. Particle size distribution is also an important factor influencing the dissolution of a drug substance and is known to influence the drug release from matrix tablets.

Series [5] in a line: solubility in water and in ethanol at room temperature. The format is physicochemical. The note with it: for solubility: room temperature. The text has this: Particle size distribution is also an important factor influencing the dissolution of a drug substance and is known to influence the drug release from matrix tablets.
For series [6] the following is noted: Roberts et al., cited from earlier work.

The values that follow come from patent US12653807B2, “Modified release formulation for (-)-(3AR,4S,7AR)-4-hydroxy-4-m-tolylethynyl-octahydro-indole-1-carboxylic acid methyl ester” (NOVARTIS AG, priority 2013, dated 2026).

Converted amounts (≈) assume the structure as drawn. Like-named read-outs stand apart in the source and are kept apart here.

Take `COC(=O)N1CC[C@@H]2[C@H]1CCC[C@@]2(O)C#Cc1cccc(C)c1` [AFQ056, (−)-(3aR,4S,7aR)-Octahydro-4-hydroxy-4-[(3-methylphenyl)ethynyl]-1H-indole-1-carboxylic acid methyl ester]: in series [1] (Parkinson's disease patients), the “effect on L-dopa induced dyskinesias” value is listed as “reduction in L-dopa induced dyskinesias” and the “effect on underlying Parkinsonian motor symptoms” value is “without inducing any clinically or statistically significant worsening”. Further, the “most frequent adverse events” value in series [1] (patients) is “dizziness, dyskinesia, nausea, fatigue, and hallucinations”. The half-life in series [2] lay within 7 to 17 h. For the same molecule, the logP in series [3] was 4.7. In addition, in series [4], the “solubility with raising ethanol levels” value is given as “steadily increasing solubility”. The solubility in series [5] (organic solvent or mixture, ethanol, read-out: Solubility in ethanol) is around 53000 µg/mL (≈ 169 mM). Also, the “solubility in organic solvents (in words)” value in series [5] (organic solvents such as ethanol) is “soluble”. Besides, in series [5] (water), the “solubility in water (in words)” value was “hardly soluble”. Also, the solubility in series [5] (water, read-out: Solubility in water) is around 20 µg/mL (≈ 0.0638 mM).

For the molecule `CC(=O)Oc1ccccc1C(=O)O` [Aspirin], in series [6] (ethanol), the Solubility in ethanol entry is listed as “about 237 mg/ml”. The Solubility in water in series [6] (water) is 8400 µg/mL (≈ 46.6 mM).

The half-life is the time in which the quantity being followed falls by half. For orientation: logP means a log measure of how a compound divides between an organic and an aqueous phase. Read a high logP as a more lipophilic compound. For orientation: solubility means the dissolved amount per volume that the medium holds.
